How the values were obtained:
NDM-1 = NDM-1 (Klebsiella pneumoniae, UniProt C7C422); assay: Inhibition of NDM-1-catalyzed imipenem hydrolysis; type: biochemical; details: relative to L-CS319
HEK 293 cells = assay: Cytotoxicity assay; type: cell-based, human; details: up to 500 μM; 24 h incubation
HeLa cells = assay: Cytotoxicity assay; type: cell-based, human; details: up to 500 μM; 24 h incubation

Sequence of NDM-1 (C7C422 39-270 limits assumed): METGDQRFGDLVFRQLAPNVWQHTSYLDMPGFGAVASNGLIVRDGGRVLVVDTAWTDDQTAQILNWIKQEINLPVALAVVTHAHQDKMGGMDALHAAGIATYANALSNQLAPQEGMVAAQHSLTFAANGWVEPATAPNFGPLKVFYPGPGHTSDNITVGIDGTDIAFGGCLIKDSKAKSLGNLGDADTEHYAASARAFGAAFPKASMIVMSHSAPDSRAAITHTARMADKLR

| Structure (SMILES) | times less active than L-CS319 (in vitro NDM-1 inhibition) (NDM-1) | toxic effects against Hek 293 cells (HEK 293 cells) | toxic effects against HeLa cells (HeLa cells) |
| --- | --- | --- | --- |
| CC1(C)S[C@@H]2CS[C@@H](CS)N2[C@H]1C(=O)O [D-VC26, (2S,5R,8S)-2-Mercaptomethyl-7-dimethyl-8-carboxylate-1-aza-3,6-dithiobicyclo[3.3.0]octane] | ~2 times |  |  |
| O=C(O)[C@@H]1CS[C@H]2CS[C@H](CS)N21 [L-CS319, (2R,5S,8R)-8-Carboxylate-2-mercaptomethyl-1-aza-3,6-dithiobicyclo[3.3.0]octane] |  | did not show toxic effects | did not show toxic effects |

— paper PMC5064445 (ACS infectious diseases, 2015)
